How the values were obtained:
[1] = Cbz-capped dehydrodipeptides; cited from earlier work
Protocol: Our research group, and others, have reported new dehydropeptides capable of forming hydrogels. The presence of a dehydroamino acid residue imparts increased proteolytic resistance into the hydrogels, as well as different physical properties arising from the decreased structural flexibility of the dehydropeptide chain [13, 14, 15, 16]. In our laboratories, several dehydrodipeptides capped on the N-terminus with naproxen (e.g., Npx-L-Phe-Z-ΔPhe-OH and Npx-L-Trp-Z-ΔPhe-OH) were prepared and tested as hydrogelators, providing hydrogels with critical gelation concentrations (CGCs) of between ... || Figure 1 (A) Our previously studied naproxen- and carboxybenzyl-capped dehydropeptide hydrogelators. (B) Examples of bolaamphiphilic hydrogelators in the literature. (C) Summary of hydrogel properties. (D) Combining the structures of N-capped dehydrohydropeptide gelators and bolaamphiphilic gelators into a single molecule. TEXT PRINTED IN THE PICTURE: (C) a: cgc (wt%): 0.4 (pH: 8.0) | (C) b: cgc (wt%): 0.4 (pH: 6.0) | (C) c: cgc (wt%): 0.1 (pH: 5.0) | (C) d: cgc (wt%): 0.2 (pH: 5.0) | (C) e: cgc (wt%): 2.5 (pH: 2.0) | (C) f: cgc (wt%): 5.0 (pH: 3.3)

[2] = Sustained release assay of model cargo from hydrogels
Protocol: Hydrogels containing cationic, anionic, or zwitterionic model drugs were prepared using the same conditions described in Section 2.2 but with the water component (1 mL) being replaced by a methylene blue solution, methyl orange solution, or ciprofloxacin solution. In a modified version of the method described by Abraham et al., water was carefully layered on top of the hydrogel surface. Then, the percentage release of model drug was recorded versus time, over 6 days, through UV absorption measurements or by HPLC and then subsequently fitted to a standard calibration curve (Figure S10 in Supplementary Information). The experiments were also assessed visually (Figure 9). […] In the studies involving the release of methyl orange, a clearly visible release of the anionic dye into the layered water solution was observed from the three hydrogels after several days (Figure 9B,D,F centre). The results for the release of methyl orange were also confirmed quantitatively by UV absorption measurements. Hydrogelators 1 and 3, which contain a phenylalanine residue, release nearly 60% of the anionic methyl orange cargo, whereas hydrogel 2, containing a tyrosine residue, released more than 90%. […] Ciprofloxacin was included as an overall neutral cargo. In experiments involving hydrogels of compounds 1–3 containing ciprofloxacin, the amount of ciprofloxacin present in the above water layer was determined by HPLC at various time-points. Hydrogelators 1, 2, and 3 release 32%, 58%, and 20% of their ciprofloxacin cargo, respectively (Table 4) (Figure S11 in Supplementary Information). As observed for methyl orange, the hydrogel that releases the greatest amount of ciprofloxacin is the hydrogel obtained from compound 2 (Table 4, Figure S11 in Supplementary Information).
To quantitatively evaluate the drug release from hydrogels 1–3, several mathematical models were tested to see which one fits the tested hydrogels. The Korsmeyer–Peppas model is the preferred model for polymeric systems. Korsmeyer described a simple relationship that described drug release from a polymeric system that includes both the diffusion and erosion of the polymer chain. The following equation describes the Korsmeyer–Peppas model: Mt/M = Kt^n
Hydrogels of 1, 2, and 3 were prepared as described in Section 4.2 to form 1 mL hydrogels containing the same concentration of the hydrogelators described above and the appropriate cargo (methylene blue ([…]), methyl orange (0.2 nM), or ciprofloxacin (0.2 nM)), in a slightly modified version of the procedure described by Abraham et al.. After allowing to stand overnight, 1.5 mL of water was carefully added to the surface of the hydrogels. Aliquots of the layered solution (100 μL) were removed at 1 h, 2 h, 3 h, 4 h, 6 h, 24 h, 72 h, and 6 days from the time the water was initially layered on top of the hydrogel. After removing each aliquot, the volume water was immediately replaced by an equal volume of water. The concentration of methylene blue or methyl orange in each aliquot was determined by measuring the absorbance at λmax of the dye (666 nm for methylene blue and 465 nm for methyl orange) using a microplate reader and then converting the value to percentage release (using a standard calibration curve). The concentration of ciprofloxacin in each aliquot was determined using analytical HPLC, where the integrated peak area was converted to a percentage release (using a standard calibration curve). Each experiment was performed in triplicate, and the mean percentage cargo release was plotted against time.

[3] = Oscillatory rheology of hydrogels; type: physicochemical; details: for G′ / G″: hydrogel at structural equilibrium, frequency sweep 100 to 0.1 Hz, strain 0.01%; for G′ / G″ / Initial time lag before the significant rise in G′: 25 °C; for k (growth rate constant) / kn (nucleation rate constant): fit of Equation (1) to gelation kinetics; for dG: fit of Equation (1), increment in storage modulus during the kinetics; for Initial time lag before the significant rise in G′: gelation kinetics, 0.001% strain; for Initial time lag before the significant rise in G′ / Thermal stability of gel (variation of G′): 1 Hz; for Thermal stability of gel (variation of G′): heating–cooling cycle between 25 and 40 °C, 1 °C/min, strain 0.005%
From the text: This is due to the rather small deformation used during this test to allow gel formation without disturbing the build-up of the network structure. In contrast to this, see the data for compounds 1 and 2. A two-step model is often used to describe the nucleation (with rate constant kn) and growth (with rate constant k) of aggregates of peptides:(1) f(t) = G0 + dGρ(e^(1+ρ)kt − 1)/1 + ρe^(1+ρ)kt where ρ = kn/k , G0 is the initial storage modulus of the aggregate-free solution, and dG is the increment in the storage modulus during the kinetics.
After reaching the structural equilibrium established by the reading of constant shear moduli G′ and G″ with time, a frequency-sweep from 100 down to 0.1 Hz was performed with a strain of 0.01% (Figure S6 in Supplementary Information). For hydrogels obtained from compounds 1, 2, and 3, G′ is essentially constant over the frequency domain tested, and it is 10 times larger than G″. Overall, all mechanical spectra are qualitatively similar and reminiscent of the rheological signature of gels, as G′ is higher than G″ for hydrogels of compounds 1–3 (Table 3). ′
After the thermal cycle, gels were submitted to a strain sweep, where the frequency was maintained at 1 Hz. The hydrogels of compounds 2 and 1 break up more easily than hydrogel of compound 3 (Figure 7). […] In summary, and connecting the rheological data to the structural information inferred from both STEM and CD, coil conformers of compound 2 rapidly self-assemble to build a rubber-like (entropic) network, which brings most of the gel elasticity. This is in contrast to the elastically weaker gels of compound 3, which are predominantly made from the networking of fibrils likely formed from beta conformers. Gels of compound 1 show intermediate elasticity, originating from the slower networking of a mixture of coil and beta sheet conformers.
The viscoelastic characterization of hydrogels was performed with a stress-controlled rotational rheometer Anton Paar MCR300 (Anton Paar GmbH, Graz, Austria). Gel-forming solutions were loaded in the shearing geometry (a Couette cell with 1 mL volume and 0.5 mm gap) at 25 °C. The liquid sample was pre-sheared at a shear rate of 5 s^−1 during one minute to homogenize the sample in the shearing geometry. Then, the gelation kinetics was monitored during 10 h by applying a small amplitude (0.001%) oscillatory shear at 1 Hz and recording both storage (G′) and loss (G″) moduli at each second. Then, mechanical spectra were recorded, and gels were submitted to a heating–cooling cycle between 25 and 40 °C at a rate of +/−1 °C/min. Finally, gels were submitted to a strain sweep.

[4] = Gelation study, pH trigger with GdL, vial inversion test; type: physicochemical; details: for pH (gelation conditions): pH of hydrogel at cgc after GDL 0.4 wt %; for Critical Gelation Concentration (cgc): vial inversion test, water, NaOH (1 M) to circa pH 10, then GDL 0.4 wt %
From the text: Nonetheless, dimeric dehydropeptides 1–4 could be dissolved in water upon pH adjustment to pH 10–11, which was achieved by addition of NaOH solution (1 M). Gel formation was triggered by a slow pH drop. The pH change was obtained by the aqueous hydrolysis of added D-glucono-δ-lactone (GdL) to D-gluconic acid. […] The CGCs of hydrogels 1–3 were qualitatively assessed by varying the peptide concentrations and conducting vial inversion tests.
Dehydrodipeptides 1, 2 and 3 were weighed into sample vials, water was added, and the suspension was adjusted under magnetic stirring to circa pH 10 (pH meter) by the addition of NaOH (1 M), and D-glucono-δ-lactone (GDL) was added. The solutions were left standing overnight at room temperature (20–25 °C).

[5] = tested on: HaCaT cell line (human keratinocytes); assay: MTT assay, cell viability; type: cell-based; details: 24 h; for Apparent loss of cell viability (mitochondrial activity): most concentrations tested, independent of concentration
Protocol: Human keratinocytes cell line HaCaT was from ATCC. Cells were cultured in DMEM supplemented with 10% FBS and 1% penicillin/streptomycin and were incubated at 37 °C, in a humidified atmosphere of 5% CO2.
Cells were seeded in 96-well plates (1.5 × 10^4 cells/well) and left to attach for 24 h. After this period, cells were incubated with different concentrations of the molecules under study for another 24 h. Then, cell viability was evaluated based on the ability of metabolically active cells to convert MTT to formazan over the course of 2 h. Absorbances were measured at 570 nm in a Multiskan GO plate reader (Thermo Fisher Scientific; Waltham, MA, USA) and results were expressed as percentage of the respective control and correspond to the mean ± standard error of the mean (SEM) of at least three independent experiments performed in triplicate. On the other hand, to assess the release of the stable cytosolic enzyme lactate dehydrogenase (LDH) into the media, 24 h after the incubation of the cells with the different concentrations of the molecules under study, 40 µL of culture media were removed to a 96-well plate. LDH released was determined using a CytoTox 96® assay kit (Promega; Madison, WI, USA) according to the manufacturer’s instructions. Then, 1% Triton X-100 was used as positive control to assure cell lysis (30 min). Absorbances were measured at 490 nm in a Multiskan GO plate reader (Thermo Fisher Scientific; Waltham, MA, USA), and results correspond to the fold-increase of absorbance in treated vs. untreated cells of three independent experiments performed in duplicate. Following assessment of the distribution of the results, ANOVA was performed using GraphPad Prism 8.0 (GraphPad Prism Inc., San Diego, CA, USA).

[6] = standing overnight at room temperature (20–25 °C)

For Cbz-L-Phe-Z-ΔPhe-OH, the CGC [1] is listed as 0.1%.

With O=C(O)/C(=C/c1ccccc1)NC(=O)[C@H](Cc1ccccc1)NC(=O)c1ccc2cc(C(=O)N[C@@H](Cc3ccccc3)C(=O)N/C(=C\c3ccccc3)C(=O)O)ccc2c1 [Compound 3] the “K, release rate constant, Korsmeyer–Peppas model” value (“K, release rate constant” below) ([2]; ciprofloxacin release profile) was 0.0001, the “n, release exponent, Korsmeyer–Peppas model” value (“n, release exponent” for short) ([2]; ciprofloxacin release profile) was 0.6300 and the “K, release rate constant” value ([2]; methyl orange release profile) was 0.0400. For the same molecule, the “n, release exponent” value ([2]; methyl orange release profile) was 0.3300, the “G′” value [3] was 3.7 × 10^2 Pa and the “G″” value [3] was 1.3 × 10^1 Pa. For the same molecule, the “pH (gelation conditions)” value [4] was 5.30, the “Critical Gelation Concentration (cgc)” value ([4]; overnight at room temperature) was 3.7 mM and the “Critical Gelation Concentration (cgc)” value [4, 6] was 0.3 wt %. The “Apparent loss of cell viability (mitochondrial activity)” value (“Apparent loss of cell viability” for short) [5] was “around 20%”.

In the case of O=C(O)/C(=C/c1ccccc1)NC(=O)[C@H](Cc1ccc(O)cc1)NC(=O)c1ccc(C(=O)N[C@@H](Cc2ccc(O)cc2)C(=O)N/C(=C\c2ccccc2)C(=O)O)cc1 [Compound 2], the “K, release rate constant” value ([2]; ciprofloxacin release profile) is reported as 0.0030, the “n, release exponent” value ([2]; ciprofloxacin release profile) is reported as 0.5800 and the “K, release rate constant” value ([2]; methyl orange release profile) is reported as 0.0900. The “n, release exponent” value ([2]; methyl orange release profile) was 0.2700, the G0 ([3]; fit of Equation (1) (Saitô) to gelation kinetics, initial storage modulus) was 0 ± 25 Pa and the “k (growth rate constant)” value [3] was 1.84 ± 0.04 h⁻¹. The “kn (nucleation rate constant)” value [3] was 0.02 ± 0.001 h⁻¹, the dG [3] was 5722 ± 39 Pa and the “Initial time lag before the significant rise in G′” value [3] was 4600 s. For the same molecule, the “Thermal stability of gel (variation of G′)” value [3] was “shows a thermal hysteresis”, the “G′” value [3] was 4.5 × 10^3 Pa and the “G″” value [3] was 1.4 × 10^2 Pa. The “pH (gelation conditions)” value [4] was 4.15, the “Critical Gelation Concentration (cgc)” value ([4]; overnight at room temperature) was 5.1 mM and the “Critical Gelation Concentration (cgc)” value [4, 6] was 0.4 wt %. The “Effect on HaCaT viability” value [5] was “mostly devoid of any effect” and the “Loss of mitochondrial activity” value ([5]; the two highest concentrations) was “around 10%”.

With O=C(O)/C(=C/c1ccccc1)NC(=O)[C@H](Cc1ccccc1)NC(=O)c1ccc(C(=O)N[C@@H](Cc2ccccc2)C(=O)N/C(=C\c2ccccc2)C(=O)O)cc1 [Compound 1] the “K, release rate constant” value ([2]; ciprofloxacin release profile) was 0.0200, the “n, release exponent” value ([2]; ciprofloxacin release profile) was 0.3300 and the “K, release rate constant” value ([2]; methyl orange release profile) was 0.0200. For the same molecule, the “n, release exponent” value ([2]; methyl orange release profile) was 0.4000, the “k (growth rate constant)” value [3] was 0.18 ± 0.10 h⁻¹ and the “kn (nucleation rate constant)” value [3] was 0.40 ± 0.04 h⁻¹. The dG [3] was 2392 ± 66 Pa, the “Initial time lag before the significant rise in G′” value [3] was 2300 s and the “Thermal stability of gel (variation of G′)” value [3] was “not thermally sensitive”. For the same molecule, the “G′” value [3] was 2.5 × 10^3 Pa, the “G″” value [3] was 6.5 × 10^1 Pa and the “pH (gelation conditions)” value [4] was 5.10. The “Critical Gelation Concentration (cgc)” value ([4]; overnight at room temperature) was 4.0 mM, the “Critical Gelation Concentration (cgc)” value [4, 6] was 0.3 wt % and the “Apparent loss of cell viability” value [5] was “around 20%”.

For Cbz-L-Tyr-Z-ΔPhe-OH, the CGC [1] is given as 0.1%.

With O=C(O)/C(=C/c1ccccc1)NC(=O)[C@H](Cc1ccc(O)cc1)NC(=O)c1ccc2cc(C(=O)N[C@@H](Cc3ccc(O)cc3)C(=O)N/C(=C\c3ccccc3)C(=O)O)ccc2c1 [Compound 4] the Hydrogel formation ([4]; slow pH drop by GdL hydrolysis from pH 10–11, for 4 several triggers (pH, temperature, solvent exchange), 0.3–0.8 wt %) was “failed to give hydrogels”, the “Critical Gelation Concentration (cgc)” value ([4]; overnight at room temperature) was “No hydrogel” and the “Critical Gelation Concentration (cgc)” value [4, 6] was “No hydrogel”. For the same molecule, the “Apparent loss of cell viability” value [5] was “around 20%”.
